Patent US20180110770A1, “FERROPTOSIS AND GLUTAMINOLYSIS INHIBITORS AND METHODS OF TREATMENT” (MEMORIAL SLOAN-KETTERING CANCER CENTER, priority 2015, published 2018)
Peptide text beside a SMILES is read from it. * marks the point of attachment. Cbz = O=C(OCc1ccccc1)*; CH2F = FC*

Key:
[1] = 2,2-Diphenyl-1-picrylhydrazyl assay for antioxidant activity; conditions: compound 50 μM, DPPH 50 μM in methanol, 1 hr, room temperature, absorbance at 517 nm
Experimental: The experiment was performed as described previously (Blois, 1958; Dixon et al., 2012). 2,2-Diphenyl-1-picrylhydrazyl (DPPH) (Sigma Cat#D9132) was dissolved in methanol to a final concentration of 50 μM. The tested compounds were added to 1 ml of DPPH solution with a final concentration of 50 μM. Samples were mixed well and incubated at room temperature for 1 hr. The absorbance at 517 nm (indicating the concentration of non-reduced DPPH) was measured using methanol as control.

MEFs [2] = assay: Serum-dependent necrosis (serum-induced cell death) upon amino acid or cystine starvation; type: cell-based, mouse; conditions: 12 hrs, NAC 0.2 mM, Trolox 0.2 mM; for inhibition of serum-dependent cell death triggered by cystine starvation: cystine starvation in the presence of serum; for inhibition of serum-dependent necrosis (cell viability / cell death): total amino acid starvation in the presence of FBS, GPNA 5 mM, 968 20 μM, AOA 0.5 mM, BPTES 10 μM, DFO 80 μM, CPX 10 μM, BIP 100 μM, cysteine/cystine 0.2 mM, U0126 and PD0325901 10 μM
Experimental: (§1) To induce cell death, 80%-confluent cells were washed with PBS twice, and then cultured in amino acid-free medium, with specific factors added as indicated in individual experiments. Cell death was analyzed by propidium iodide (PI) staining coupled with microscopy or flow cytometry. Alternatively, cell viability was determined using the CellTiter-Glo luminescent Cell Viability Assay (Promega). In assays using WT MEFs, viability was calculated by normalizing ATP levels to cells treated with amino acid-starvation in the presence of 10% (v/v) diFBS, while in assays using bax/bak-DKO MEFs, ATP levels were normalized to cells treated with amino acid and FBS double starvation.

[3] = tested on: hearts isolated from wild-type mice; assay: Ischemia-reperfusion (I/R) analysis using isolated hearts (ex vivo heart model); type: in vivo; conditions: ex vivo mouse heart, DFO 80 μM; for left ventricular developed pressure (LVDP) recovery at the end of reperfusion / myocardial infarct size (TTC staining): 30 min global ischemia, 60 min reperfusion; for left ventricular developed pressure (LVDP) recovery at the end of reperfusion: 968 25 μM in perfusate, vehicle 43.20%±1.66%; for myocardial infarct size (TTC staining): vehicle 30.82%±0.57%
Experimental: Male C57BL/6J mice weighing 25-30 g at age 12-14 weeks were used in all experiments and maintained in a temperature-controlled room with alternating 12:12-h light-dark cycles. Experiments were performed using an isovolumic isolated heart preparation as published and modified for the use in mice hearts ([…] et al., 2009; Hwang et al., 2004). Hearts from 12-14 weeks aged wild-type mice were isolated, and retrograde perfused at 37° C. in a non-recirculating mode through the aorta at a rate of 2.5 ml/min. Hearts were perfused with modified Krebs-Henseleit (KH) buffer (118 mM NaCl, 4.7 mM KCl, 2.5 mM CaCl2, 1.2 mM MgCl2, 25 mM NaHCO3, 5 mM glucose, 0.4 mM palmitate, 0.2 mM glutamine, 10 μg/ml human recombinant transferrin, 0.4 mM BSA, and 70 mU/1 insulin). Left ventricular developed pressure (LVDP) was measured using a latex balloon in the left ventricle. LVDP and coronary perfusion pressure were monitored continuously on a four-channel Gould recorder. Hearts were perfused either with KH buffer containing vehicle (DMSO) or the Compounds throughout the FR protocol. After an equilibration period of 30 min, global ischemia was performed for 30 min followed by 60 minutes of reperfusion. Cardiac injury due to I/R stress was assessed by measuring LDH release in the perfusates that were collected during 60 min of reperfusion. […] After 60 min of reperfusion, the heart is perfused with Evans blue in-situ and then removed. Hearts were sliced into cross-sections at approximately 1-mm intervals. The sections were embedded in the TTC solution at 37° C. for 10 min, and area of infarct as a percent of the whole heart was quantified as described. Functional recovery of LVDP was expressed by comparing to the initial LVDP before ischemia. All animal experiments were approved by the Institutional Animal Care and Use Committees of New York University School of Medicine and conformed to the guidelines outlined in the National Institutes of Health Guide for Care and Use of Laboratory Animals (NIH Pub. No. 85-23, 1996).

MEFs [4] = assay: Erastin-induced ferroptosis; type: cell-based, mouse; conditions: erastin 1 μM, 12 hrs, DFO 80 μM, CPX 10 μM, 968 20 μM, AOA 0.5 mM, U0126 and PD0325901 10 μM
caspase-3 activation = assay: Caspase-3 activation induced by UV light (Western blot); type: cell-based
MEFs [5] = assay: Death-inducing activity of serum small molecules under amino acid starvation with diFBS; type: cell-based, mouse; conditions: 12 hrs, α-KG 4 mM also in the presence of AOA 0.5 mM, glucose with diFBS or transferrin
Experimental: as §1

bax/bak-DKO MEFs = assay: Death-inducing activity of transferrin and L-Gln under amino acid starvation; type: cell-based, mouse; conditions: 12 hrs
Experimental: as §1

MEK1/2 = conditions: MEFs, PD0325901 10 μM, U0126 10 μM, Western blotting
TNF-α induced apoptosis = assay: TNF-α induced apoptosis; type: cell-based; conditions: TNF-α 50 ng/ml + SMAC mimetic 0.5 μM; AOA 0.5 mM

With `O=C(NOC[C@H](O)CO)c1ccc(F)c(F)c1Nc1ccc(I)cc1F` [PD0325901] the “antioxidant activity (reduction of DPPH)” value [1] was “showed no anti-oxidant function”.

For `CC(=O)N[C@@H](CS)C(=O)O` [NAC, N-acetylcysteine], the “inhibition of serum-dependent cell death triggered by cystine starvation” value (“inhibition … by cystine starvation” below) (MEFs [2]) was “effectively blocked” and the “inhibition of serum-dependent necrosis (cell viability / cell death)” value (shortened to “inhibition … (cell viability / cell death)”) (MEFs [2]) was “effectively blocked”.

For `CN(C)c1ccc(C2Nc3ccc4ccccc4c3C3=C2C(=O)CC(C)(C)C3)cc1Br` (stereo not drawn) [Compound 968], the “left ventricular developed pressure (LVDP) recovery at the end of reperfusion” value [3] was 75.25%±5.75%, the “myocardial infarct size (TTC staining)” value ([3]; 968 25 μM) was 17.36%±0.47% and the “release of lactate dehydrogenase (LDH) during reperfusion” value ([3]; perfusates collected during 60 min reperfusion, 968 25 μM) was “significantly inhibited”. The “antioxidant activity (reduction of DPPH)” value [1] was “showed no anti-oxidant function”, the “inhibition of erastin-induced ferroptosis (PI staining, flow cytometry)” value (shortened to “inhibition … (PI staining, flow cytometry)”) (MEFs [4]) was “can also inhibit” and the “inhibition … (cell viability / cell death)” value (MEFs [2]) was “completely inhibited”.

With `COC(=O)C[C@H](NC(=O)[C@H](C)NC(=O)[C@@H](NC(=O)OCc1ccccc1)C(C)C)C(=O)CF` [zVAD-FMK] (Cbz-Val-Ala-Asp(OMe)-CH2F) the “block of caspase-3 activation induced by UV light” value (caspase-3 activation) was “can block” and the “inhibition … (cell viability / cell death)” value (MEFs [2]) was “failed to block”.

For `NC(=O)CC[C@H](N)C(=O)O` [L-Gln, L-glutamine], the “induction of cell death in the presence of diFBS” value (“induction … of diFBS” below) (MEFs [5]) was “induced potent cell death” and the “induction of cell death by L-Gln alone” value (bax/bak-DKO MEFs; L-Gln 0.1 mM alone) was “induced modest but measurable cell death”.

In the case of `N[C@@H](CCC(=O)N[C@@H](CS)C(=O)NCC(=O)O)C(=O)O` [GSH, glutathione], the “inhibition … by cystine starvation” value (MEFs [2]) was “effectively blocked” and the “inhibition … (cell viability / cell death)” value (MEFs [2]) was “effectively blocked”.

For `N#CC(=C(/N)Sc1ccccc1N)/C(C#N)=C(\N)Sc1ccccc1N` [Compound U0126], the “inhibition of MEK1/2 kinase activity” value (MEK1/2) was “confirmed the inhibition of MEK1/2 kinase activity”, the “antioxidant activity (reduction of DPPH)” value [1] was “anti-oxidative property” and the “inhibition … (PI staining, flow cytometry)” value (MEFs [4]) was “able to block”. For the same compound, the “inhibition … (cell viability / cell death)” value (MEFs [2]) was “able to block”.

In the case of “transferrin: iron carrier protein in serum”, the “cell death on addition of transferrin to L-Gln” value (bax/bak-DKO MEFs; with L-Gln 0.1 mM) was “further enhanced cell death”.

In the case of `COC(=O)CCC(=O)C(=O)OC` [α-KG, Dimethyl-α-Ketoglutarate], the “induction … of diFBS” value (MEFs [5]) was “can induce potent cell death”.

In the case of L-alanine-L-glutamine [A-Q], the “induction … of diFBS” value (MEFs [5]) was “able to induce cell death”.

In the case of `N[C@@H](CCC(=O)Nc1ccc([N+](=O)[O-])cc1)C(=O)O` [GPNA, L-g-glutamyl-p-nitroanilide], the “inhibition … (cell viability / cell death)” value (MEFs [2]) was “markedly blocked”.

With `N[C@@H](CSSC[C@H](N)C(=O)O)C(=O)O` [cystine] the “inhibition … (cell viability / cell death)” value (MEFs [2]) was “rescued cells from necrosis”.

With `NOCC(=O)O` [AOA, amino-oxyacetate] the “inhibition of TNF-α induced apoptosis” value (TNF-α induced apoptosis) was “cannot inhibit”, the “inhibition … (PI staining, flow cytometry)” value (MEFs [4]) was “can also inhibit” and the “inhibition … (cell viability / cell death)” value (MEFs [2]) was “could inhibit”.

For “recombinant human holo-transferrin: recombinant human holo-transferrin expressed in rice”, the “induction of cell death in the presence of smFBS” value (bax/bak-DKO MEFs; with smFBS) was “could induce cell death in a dose-dependent manner”.

In the case of `c1ccc(-c2ccccn2)nc1` [BIP, 2,2-bipyridyl], the “inhibition … (cell viability / cell death)” value (MEFs [2]) was “blocked”.

In the case of `Cc1cc(C2CCCCC2)n(O)c(=O)c1` [CPX, ciclopirox olamine], the “inhibition … (PI staining, flow cytometry)” value (MEFs [4]) was “inhibited” and the “inhibition … (cell viability / cell death)” value (MEFs [2]) was “blocked”.

With `CCOC(=O)c1ccc(NC2CCCCC2)c(N)c1` [Fer-1] the “inhibition … by cystine starvation” value (MEFs [2]) was “can block” and the “inhibition … (cell viability / cell death)” value (MEFs [2]) was “can block”.

In the case of `N[C@@H](CS)C(=O)O` [cysteine], the “inhibition … (cell viability / cell death)” value (MEFs [2]) was “rescued cells from necrosis”.

With `O=C(Cc1ccccc1)Nc1nnc(CCSCCc2nnc(NC(=O)Cc3ccccc3)s2)s1` [BETPS, Bis-2-(5-phenylacetamido-1,3 ,4-thiadiazol-2-yl)ethyl sulfide] the “inhibition … (cell viability / cell death)” value (MEFs [2]) was “failed to block”.

With `Cc1c(C)c2c(c(C)c1O)CCC(C)(C(=O)O)O2` (stereo not drawn) [Trolox, 6-hydroxy-2,5,7,8-tetramethylchroman-2-carboxylic acid] the “inhibition … by cystine starvation” value (MEFs [2]) was “effectively blocked” and the “inhibition … (cell viability / cell death)” value (MEFs [2]) was “effectively blocked”.

For `CC(=O)N(O)CCCCCNC(=O)CCC(=O)N(O)CCCCCNC(=O)CCC(=O)N(O)CCCCCN` [DFO, Deferoxamine], the “left ventricular developed pressure (LVDP) recovery at the end of reperfusion” value [3] was 64.75%±4.09% and the “myocardial infarct size (TTC staining)” value ([3]; 968 25 μM) was 22.60%±0.97%.
